Patent publication US9945860B2, “Nicotinamide adenine dinucleotide indicators, methods of preparation and application thereof” (East China University of Science and Technology, priority 2011, dated 2018)
Where “and” joins values, the source holds several entries; their conditions need not be identical. Equal values may be shown once.

Columns and labels:
[1] = tested on: NADH levels in different subcellular compartments; experiment: Real-time measurement of NADH levels regulated by glucose, pyruvate and lactate; assay type: cell-based
From the text: Glycolysis is an important pathway of producing NADH and it plays a vital role in regulating intracellular NADH levels. The nicotinamide adenine dinucleotide fluorescent sensors were used to test how several important metabolites in this pathway, glucose, pyruvate and lactate, would influence the NADH levels in different subcellular compartments. […] As products of glycolysis pathway, pyruvate and lactate are presented in the cytoplasm with a dynamic balance between them. At increased intracellular levels of pyruvate, lactate dehydrogenase consumes NADH and produces lactate and NAD^+, and in turn, leads to the decrease of NADH levels in cytoplasm. At increased intracellular levels of lactate, lactate dehydrogenase consumes NAD^+ and produces pyruvate and NADH, and in turn, leads to the increase of NADH levels in cytoplasm.

[2] = tested on: NADH levels in mitochondria; experiment: Real-time detection of mitochondrial NADH when respiratory chain complexes are inhibited; assay type: cell-based; conditions: for fluorescence (ex 485, em 528) of the sensor in mitochondria: treated for 30 min
Procedure: NADH that produced via glycolysis pathway and tricarboxylic acid cycle pathway will be oxidized by the oxidative phosphorylation pathway of mitochondrial respiratory chain, and then generate ATP to provide energy for various life activities. Fluorescent sensors for nicotinamide adenine dinucleotide were used to measure changes of NADH levels in mitochondria when various complexes in the respiratory chain were inhibited. […] Time interval between the figures was 1 min. The cells were observed before and after treatment under a laser scanning confocal microscope (Nikon, Japan). […].

[3] = tested on: 293FT cells; experiment: Real-time measurement of intracellular NADH after adding external NADH to the culture medium; assay type: cell-based
From the text: As described in Example 7, the fluorescence sensors for reduced nicotinamide adenine dinucleotide were expressed in different subcellular organelles of 293FT cells. […] Following the addition of external NADH into cell culture medium, transfected cells were observed under a laser scanning confocal microscope (Nikon, Japan). […] As to the control group in comparison, the cpYFP presented alone was not affected by extra NADH either. Therefore, effects of pH and the variation in cpYFP per se by environmental changes could be excluded. This series of sensors were further utilized to detect influences of extra NADH on other organelles, and observed that extra NADH could also increase the NADH levels in nucleus and mitochondria, the results for nucleus study are shown in FIG. 8-1B, and those for mitochondria study are shown in FIG. 8-1C.

[4] = Spectral characteristics of fluorescent sensors (excitation and emission spectra); assay type: physicochemical; conditions: 10 μM sensor in 100 mM KPi, pH7.4
Procedure: The fluorescent sensors that prepared above were dissolved in assay buffer (100 mM KPi, pH7.4) to formulate fluorescent sensor solutions to a final concentration of 10 μM. Then their absorption spectra were measured using a Multi-functional Fluorescence Microplate Reader (Synergy2, Biotek) (FIG. 3A).
Their excitation and emission spectra were determined using a fluorescence spectrophotometer (Cary Eclipse Fluorescence spectrophotometer, Varian) (FIG. 3B).

[5] = tested on: H1299 tumor cells; experiment: In vivo imaging of NADH metabolism in H1299-superFrex tumors; parameters: species or system nude mice; conditions: 300 μl sodium pyruvate (100 mM) via the tail vein
Procedure: H1299 tumor cells were transfected with pcDNA3.1-cyt-superFrex, and then screened under Hygromycin B for 2 weeks. […] Male nude mice of 5-6 weeks old were subcutaneously injected with 200 μl of H1299-superFrex cell suspension (1.0×10^7 cells) into their right armpits and housed for 3-4 weeks at SPF Animal facility, tumors in the nude mice grew to 0.6-1.0 cm. The nude mice were anaesthetized and then injected with 300 μl of sodium pyruvate (100 mM) via the tail vein. Effects of the agent on tumor metabolism were observed immediately with Kodak multifunctional vivo imaging system (Carestream, USA). […] Over time, pyruvate was gradually consumed metabolically, and the ratio of NADH/NAD^+ in tumor cells resumed the initial level (FIG. 12-C). In summary, superFrex, the fluorescent sensor for reduced/oxidized nicotinamide adenine dinucleotide ratio, works well in real-time monitoring of the NADH metabolism in tumor tissues.

CC(O)C(=O)O (stereo not drawn) [lactate]
NADH levels in cytoplasm [1]: rapid increase

C=C(C)[C@H]1Cc2c(ccc3c2O[C@@H]2COc4cc(OC)c(OC)cc4[C@@H]2C3=O)O1 [rotenone]
fluorescence (ex 485, em 528) of the sensor in mitochondria [2]: increased

antimycin A
fluorescence (ex 485, em 528) of the sensor in mitochondria [2]: increased

NC(=O)C1=CN([C@@H]2O[C@H](COP(=O)(O)OP(=O)(O)OC[C@H]3O[C@@H](n4cnc5c(N)ncnc54)[C@H](O)[C@@H]3O)[C@@H](O)[C@H]2O)C=CC1 [NADH, reduced nicotinamide adenine dinucleotide]
intracellular NADH levels ([3]; external NADH added to medium): immediate increase | NADH levels in nucleus and mitochondria ([3]; extra NADH): increase

F-rex2: sensor from pRSETb-ydiH(189)-YFP-ydiH(190), Thermus aquaticus YdiH with cpYFP inserted, SEQ ID NO: 8
emission peak [4]: 518 nm | excitation peaks [4]: 410 nm and 500 nm | intensity of the latter excitation peak relative to the former [4]: about half

cpYFP: circular permutation yellow fluorescent protein, control protein, SEQ ID NO: 22
control protein expressed in mitochondria upon 3-NP treatment ([2]; 6-minute profile): no obvious change | effect of extra NADH on control protein presented alone ([3]; 293FT cells): not affected | control tumor cells expressing cpYFP, change caused by pyruvate [5]: no difference

O=C(O)CC[N+](=O)[O-] [3-NP]
NADH levels in mitochondria ([2]; NADH sensor expressed in mitochondria, 6-minute profile): greatly decline
